“Also recorded” adds a separate entry of the source.
Experiments:
[1] = test system: GABA-A α2, α3 and α5 subtypes; settings: cited from earlier work
[2] = target: T1, GABA-A α1 subtype (Homo sapiens, UniProt P14867+P18507); settings: cited from earlier work
T1 sequence (P14867 28-456): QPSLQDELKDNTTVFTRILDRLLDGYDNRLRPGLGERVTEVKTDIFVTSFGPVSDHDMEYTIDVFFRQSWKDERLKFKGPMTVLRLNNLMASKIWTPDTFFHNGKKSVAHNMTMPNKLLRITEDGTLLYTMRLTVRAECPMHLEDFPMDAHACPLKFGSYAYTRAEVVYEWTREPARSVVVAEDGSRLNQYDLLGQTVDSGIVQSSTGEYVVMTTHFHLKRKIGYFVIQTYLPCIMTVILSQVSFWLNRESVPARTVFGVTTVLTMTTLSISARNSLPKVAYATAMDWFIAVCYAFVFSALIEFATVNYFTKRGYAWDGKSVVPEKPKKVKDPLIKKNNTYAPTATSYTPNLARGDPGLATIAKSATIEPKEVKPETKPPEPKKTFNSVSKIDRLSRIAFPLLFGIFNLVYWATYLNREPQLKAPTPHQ
T1 sequence (P18507 40-467 limits assumed): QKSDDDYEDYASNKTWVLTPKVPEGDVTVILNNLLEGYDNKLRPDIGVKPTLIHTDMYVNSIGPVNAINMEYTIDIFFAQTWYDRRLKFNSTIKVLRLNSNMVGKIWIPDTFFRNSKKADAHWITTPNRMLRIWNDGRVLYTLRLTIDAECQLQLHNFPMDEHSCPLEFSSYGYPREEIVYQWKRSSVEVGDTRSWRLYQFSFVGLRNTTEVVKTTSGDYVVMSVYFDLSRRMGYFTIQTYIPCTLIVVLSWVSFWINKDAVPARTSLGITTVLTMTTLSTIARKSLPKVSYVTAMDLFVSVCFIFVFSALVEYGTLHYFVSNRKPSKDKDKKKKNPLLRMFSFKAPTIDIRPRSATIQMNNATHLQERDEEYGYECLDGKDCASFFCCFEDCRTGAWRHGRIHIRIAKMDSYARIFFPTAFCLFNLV
T1 sequence (P28472 26-473 partner): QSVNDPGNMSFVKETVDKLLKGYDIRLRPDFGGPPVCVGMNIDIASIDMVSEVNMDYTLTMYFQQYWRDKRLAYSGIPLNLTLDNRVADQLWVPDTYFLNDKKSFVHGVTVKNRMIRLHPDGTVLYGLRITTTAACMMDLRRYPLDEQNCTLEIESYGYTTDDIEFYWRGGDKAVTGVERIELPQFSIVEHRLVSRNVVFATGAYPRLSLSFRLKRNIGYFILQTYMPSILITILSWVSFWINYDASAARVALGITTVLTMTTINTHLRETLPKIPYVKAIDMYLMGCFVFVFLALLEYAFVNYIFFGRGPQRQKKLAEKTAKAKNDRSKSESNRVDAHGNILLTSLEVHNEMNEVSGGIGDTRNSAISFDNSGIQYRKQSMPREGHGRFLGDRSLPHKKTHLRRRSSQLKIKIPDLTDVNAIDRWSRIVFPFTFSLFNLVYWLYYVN

[3] = cited from earlier work
[4] = test system: wild-type mice; experiment: Three-chamber social preference test; format: in vivo; settings: 0.0625 mg/kg, listed as CLZ
Procedure: The test was performed as described previously^34 with minor modifications. […] Each partition has a square opening (5×5 cm) in the bottom center. A cylindrical wire cage (10.5 cm diameter; GALAXY PENCIL CUP™ […] D[…]™) was used as an inanimate object or the cage housing a stranger mouse. A cylindrical bottle filled with water was placed on the top of the wire cup to prevent the test mouse from climbing to the top of the cup. The three-chamber unit and wire cups were cleaned with 70% ethanol and wiped with paper towels between each trail. […] The mouse was allowed to freely explore each chamber. […] The wire cage on the other side remained empty (E). […] Thus, the test mouse would now have the choice between a mouse that was already familiar (M1) and a new stranger mouse (M2). […] The movement of the mouse was recorded by a USB webcam (LIFECAM™ HD-6000, MICROSOFT™) and PC-based video capture software (WINAVI™ Video Capture, ZJ MEDIA DIGITAL TECHNOLOGY™). The recorded video file was further analyzed by off-line video tracking software (ETHOVISION™ XT 7.0).
Oral administration is specifically contemplated for the methods described herein, and is well known for both benzodiazepines and non-BDZ GABA-A enhancers as described herein.

[5] = test system: BTBR mice; experiment: Barnes circular maze test; format: in vivo
From the text: (§1) The Barnes circular maze is a planar, round white PLEXIGLAS™ platform (92 cm diameter), 1 m above the floor, with 20 evenly spaced holes (7 cm diameter) located 5 cm from the perimeter. A black escape box (15×7×7 cm) was placed under one hole. Spatial cues with distinct patterns and shapes were placed on the wall of the testing room. A 500 lux light was turned on during the trial. An experimenter remained in the same place with minimal movement throughout the trials. The platform and the escape box were cleaned thoroughly with 70% ethanol and paper towels between each trial to remove olfactory cues. One day before the training trials began, test mice were habituated in the target box for 3 min. The training trials were repeated for 4 consecutive days, and 3 trials were performed each day with 20 min inter-trial intervals. At the beginning of each trial, a test mouse was placed in a cylindrical holding chamber (10 cm diameter) located in the center of the maze. After 10 s of holding time, the mouse was allowed to search for the target hole for 3 min. […] When the mouse entered the escape box, the light was turned off and the mouse remained undisturbed for 1 min. The movement of the mouse was recorded, and the number of errors made and the latency to find the target hole were measured during the training trials by video tracking software. On day 5, the probe trial was performed with each mouse. The escape box was removed, and the test mouse was allowed to find the target hole freely for 90 s. During the probe trial, total distance traveled and the latency to find the target hole were measured. % correct pokes and % time in the target area were also measured.
(§2) The number of errors made and the latency to find the target hole were measured during the 3 min-training trials by video tracking software.
(§3) During the 90 second-probe trial, the latency to find the target hole, % correct pokes, and % time in the target area were measured by the video-tracking software (EthoVision XT 8.5, Noldus Technology).

[6] = test system: C57BL/6J mice; experiment: Barnes circular maze test; format: in vivo; settings: 0.05 mg/kg
From the text: as §1, §2, §3

[7] = cited from earlier work; remark: listed apart in the source

| SMILES | action at α2, α3 and α5 subtypes [1] | action at the α1 subtype [2] | substitution for chlordiazepoxide in animals ([3]; drug discrimination) | substitution for zolpidem in animals ([3]; drug discrimination) | sedative effects in animal studies ([3]; even at high doses) | social interaction, 3-chamber social preference test [4] | spatial learning during training sessions (latency, errors) ([5]; 0.05 mg/kg) | spatial memory in probe trials ([5]; single low dose 30 min prior) | learning performance and spatial memory [6] | Dose in humans for anti-anxiety, anti-convulsive, or sedative effects: equivalent dose to 10 mg diazepam ([7]; Table 1, values marked *) | dose of equivalent efficacy to 10 mg of diazepam [7] |
| --- | --- | --- | --- | --- | --- | --- | --- | --- | --- | --- | --- |
| Cn1ncnc1COc1nn2c(-c3cc(F)ccc3F)nnc2cc1C(C)(C)C [L-838,417] | partial agonist | antagonist | substitutes for the anxiolytic benzodiazepine chlordiazepoxide | not for the hypnotic imidazopyridine drug zolpidem | no sedative effects | – | – | – | – | – | – |
| O=C1CN=C(c2ccccc2Cl)c2cc([N+](=O)[O-])ccc2N1 [Clonazepam] | – | – | – | – | – | no effect; also recorded: absent; also recorded: not changed | significantly improved | increased | regardless of clonazepam treatment; also recorded: significantly worsened | 0.5 mg | 0.5 mg |

From patent US20150313913A1, “POSITIVE ALLOSTERIC MODULATORS OF THE GABA-A RECEPTOR IN THE TREATMENT OF AUTISM” (UNIVERSITY OF WASHINGTON THROUGH ITS CENTER FOR …, priority 2013, published 2015)
